Experimental data taken from ChEMBL document CHEMBL1201862, “PubChem BioAssay data set” (2004).
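Test compounds were applied to cells in 96-well plates for 48 hours at 5 doses. GI50: concentration for 50% inhibition of growth.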 The source made the active and inactive calls. Cut-off read from the data, not from the text of the source: active = GI50 up to about 1.1 µM and inactive = higher.

Key:
Assay in all cases: growth of human tumour cells (NCI), 48 h
OVCAR-8 = test system: OVCAR-8
IGROV-1 = test system: IGROV-1
KM12 = test system: KM12
RXF 393 = test system: RXF 393
UACC-257 = test system: UACC-257
SK-MEL-28 = test system: SK-MEL-28
DU-145 = test system: DU-145
K562 = test system: K562
MDA-MB-231 = test system: MDA-MB-231
NCI-H23 = test system: NCI-H23
T47D = test system: T47D
Hs-578T = test system: Hs-578T
Malme-3M = test system: Malme-3M
NCI-H522 = test system: NCI-H522
HT-29 = test system: HT-29
MCF7 = test system: MCF7
SF-295 = test system: SF-295
COLO 205 = test system: COLO 205
NCI/ADR-RES = test system: NCI/ADR-RES
CAKI-1 = test system: CAKI-1

SMILES | GI50 (OVCAR-8) | GI50 (IGROV-1) | GI50 (KM12) | GI50 (RXF 393) | GI50 (UACC-257) | GI50 (SK-MEL-28) | GI50 (DU-145) | GI50 (K562) | GI50 (MDA-MB-231) | GI50 (NCI-H23) | GI50 (T47D) | GI50 (Hs-578T) | GI50 (Malme-3M) | GI50 (NCI-H522) | GI50 (HT-29) | GI50 (MCF7) | GI50 (SF-295) | GI50 (COLO 205) | GI50 (NCI/ADR-RES) | GI50 (CAKI-1)
CNC(=O)NS(=O)(=O)c1ccc(C)cc1.NS(=O)O | > 100 µM (inactive) | > 100 µM (inactive) | > 100 µM (inactive) | > 100 µM (inactive) | > 100 µM (inactive) | > 100 µM (inactive) | > 100 µM (inactive) | > 100 µM (inactive) | > 100 µM (inactive) | > 100 µM (inactive) | > 100 µM (inactive) | > 100 µM (inactive) | > 100 µM (inactive) | > 100 µM (inactive) | > 100 µM (inactive) | > 100 µM (inactive) | > 100 µM (inactive) | > 100 µM (inactive) | > 100 µM (inactive) | 
NNC(=O)c1cc(=O)[nH][nH]1 | > 100 µM (inactive) | > 100 µM (inactive) | > 100 µM (inactive) | > 100 µM (inactive) | > 100 µM (inactive) |  | > 100 µM (inactive) | > 100 µM (inactive) | > 100 µM (inactive) | > 100 µM (inactive) | > 100 µM (inactive) | > 100 µM (inactive) | > 100 µM (inactive) | > 100 µM (inactive) | > 100 µM (inactive) | > 100 µM (inactive) | > 100 µM (inactive) | > 100 µM (inactive) | > 100 µM (inactive) | > 100 µM (inactive)
Cn1cnc(C(N)=[Se])c1N | 1.92 µM (inactive) | 1.33 µM (inactive) | 2.33 µM (inactive) | 1.6 µM (inactive) | 7.24 µM (inactive) | 3.39 µM (inactive) | 4.1 µM (inactive) |  | 2.07 µM (inactive) | 3 µM (inactive) | 3.65 µM (inactive) | 3.74 µM (inactive) | 2.69 µM (inactive) | 2.19 µM (inactive) | 5.35 µM (inactive) | 3.15 µM (inactive) | 0.244 µM (active) | 2.09 µM (inactive) | 1.89 µM (inactive) | 3.27 µM (inactive)
